Assay results as given in patent US20080132481A1, “INTERLEUKIN-4 GENE EXPRESSION INHIBITORS” (AVENTIS PHARMACEUTICALS INC., priority 2002, published 2008).
pIC50: −log10 of the molar value. One block for each molecule: values may come before it.

Assays:
IFN-γ = assay: Human primary Th2 cells, IFN-γ by ELISA; format: cell-based; conditions: human primary Th2 cells activated with anti-CD3 and anti-CD28 (Table 5)
From the text: (§1) The methods described herein permit polarization of primary human peripheral blood cells into Th1 and Th2 cells and generation of sufficiently large quantities of Th1 and Th2 cells, e.g., billions of cells, to allow drug screening. Briefly, CD4^+CD45RA^+ T cells, isolated from donor peripheral blood mononuclear cells of healthy donors, are educated in the presence of anti-CD3/CD28 antibodies and various growth factors to obtain either a Th1-like or Th2-like phenotypes as determined by the known cytokine profiles of these two cell types. Primary human Th1 cells secreted IFN-γ and IL-2 cytokines while primary human Th2 cells secreted IL-4, IL-5, IL-13 and basal amounts of IFN-γ that are measurable by enzyme linked immuno absorption assay (ELISA).
(§2) Peripheral blood mononuclear cells (PBMC) are prepared from human blood by Ficoll-Hypacque (Pharmacia). The cells are washed two times in Hanks balanced salt solution (HBSS) and counted.
(§3) Naïve T cells (CD4^+/CD45RA) are prepared by negative selection method using following antibodies and Dynabeads: anti-CD8, anti-HLA-DR, (where HLA means human leucocyte antigen) anti-CD14, anti-CD16, anti-CD19, anti-CD45RO antibodies (all from R&D Systems, 1-2 μg/ml) are added to the cells, and the cells are kept on ice for 30 min. […] The cells are counted and phenotypically characterized by flow cytometric analysis. […]

Human Th2 cells = assay: Human primary Th2 cells, proliferation (MTS viability test); format: cell-based; conditions: human primary Th2 cells activated with anti-CD3 and anti-CD28 (Table 5); read-out: Prolif. IC50
From the text: as §1, §2, §3

IL-4 = assay: Human primary Th2 cells, IL-4 by ELISA; format: cell-based; conditions: for pIC50: human primary Th2 cells activated with anti-CD3 and anti-CD28 (Table 5); for IL-4 (% control) mean: human Th2 cells, anti-CD3/anti-CD28, 48 hr
Experimental: Briefly, CD4^+CD45RA^+ T cells, isolated from donor peripheral blood mononuclear cells of healthy donors, are educated in the presence of anti-CD3/CD28 antibodies and various growth factors to obtain either a Th1-like or Th2-like phenotypes as determined by the known cytokine profiles of these two cell types.
as §2
Naïve T cells (CD4^+/CD45RA) are prepared by negative selection method using following antibodies and Dynabeads: anti-CD8, anti-HLA-DR, (where HLA means human leucocyte antigen) anti-CD14, anti-CD16, anti-CD19, anti-CD45RO antibodies (all from R&D Systems, 1-2 μg/ml) are added to the cells, and the cells are kept on ice for 30 min. The cells are washed two times in HBSS, and goat anti-mouse Ig-beads, (bead:target ratio, 5:1) are added. The cells and beads are slowly rotated at 4° C. for 20 min. (following the protocol supplied from Dynal). The supernatant is removed and fresh goat anti-mouse Ig-beads are added to the supernatant, which is slowly rotated at 4° C. for 20 min. The cells are counted and phenotypically characterized by flow cytometric analysis.
Generation of Th1/Th2 cells: Twenty four well plates are coated with 300 μL anti-CD3 Ab (10 μg/ml, in PBS 1-2 h at 37° C. or overnight at 4° C.), and washed two times with PBS. […]/CD45RA^+ cells at a density of 10^6/ml in RPMI, is prepared and added to RPMI medium containing 10% Hyclone serum/glutamine and 1-2 μg/ml anti-CD28 Ab. The cells are split in two aliquots. For Th1 cells: anti-IL-4 Ab (1-2 μg/ml), IFN-γ (1 μg/ml, or 5000 units/ml) are added to the wells. For Th2 cells: IL-4 (100-200 ng/ml), anti-IFN-γ neutralizing Ab (1-2 μg/ml), anti-IL-12 neutralizing Ab (1-2 μg/ml) are added into the wells. The cells are incubated for 2-3 days at 37° C. The cells are transferred to fresh wells and grown in 200 units/ml IL-2 for 2 weeks by feeding them every other day with IL-2 containing medium and splitting the cultures 1:2 or 1:3 as needed. The degree of polarization is determined by intracellular staining of cells with anti-IFN-γ and anti-IL-4 antibodies from Pharmingen, and using flow cytometry from Becton Dickinson (BD), according to manufacturers description. The cells are stimulated with PHA and alloantigens at day 14 and 28 as described below. Eight days after the second allostimulation the cells can be used for compound screening or frozen for future use. For compound testing, large quantities of Th1 and Th2 cells derived from a given donor (NYTh1 and NYTh2) were expanded and frozen as aliquots in liquid nitrogen. The cells are thawed and cultured as and when needed. The thawed cells are stimulated with alloantigen/PHA combination. The cells are used for compound screening after 8-10 days in culture.
Re-stimulation by allogeneic cells: Human PBMCs, to be used as alloantigens, are isolated from freshly drawn blood by Ficoll separation. Cells are resuspended in medium containing 50 μg/ml mitomycin C and incubated for 40 minutes at 37° C. and then washed extensively to remove all of the Mitomycin C. Cells are counted and diluted to a final concentration of 2×10^6/ml in medium containing 10 μg/ml PHA and 200 units/ml IL-2.

IL-13 = assay: Human primary Th2 cells, IL-13 by ELISA; format: cell-based; conditions: human primary Th2 cells activated with anti-CD3 and anti-CD28 (Table 5)
From the text: as §1, §2, §3

IL-5 = assay: Human primary Th2 cells, IL-5 by ELISA; format: cell-based; conditions: human primary Th2 cells activated with anti-CD3 and anti-CD28 (Table 5)
From the text: as §1, §2, §3

[1] = test system: sheep allergic to Ascaris suum; assay: Sheep asthma model (Ascaris suum antigen challenge); format: in vivo
Experimental: Briefly, transpulmonary pressure, pulmonary resistance (RL), specific lung resistance (SRL airway hyperreactivity, airway responsiveness, are determined.
Venous blood samples (˜5 ml) are obtained from a peripheral leg vein or the jugular vein for pharmacokinetic data. Measurement of Airway Mechanics: The unsedated sheep are restrained in a cart in the prone position with their heads immobilized. After topical anesthesia of the nasal passages with 2% lidocaine solution, a balloon catheter is advanced through one nostril into the lower esophagus. The animals are […] with a cuffed endotracheal tube through the other nostril using a flexible fiberoptic bronchoscope as a guide. (The cuff of the endotracheal tube is inflated only for the measurement of airway mechanics and during aerosol challenges to prevent undue discomfort. This procedure has no effect on airway mechanics). Pleural pressure is estimated with the esophageal balloon catheter (filled with one ml of air) which is positioned 5-10 cm from the gastroesophageal junction. In this position the end expiratory pleural pressure ranges between −2 and −5 cm H20. Once the balloon is placed, it is secured so that it remains in position for the duration of the experiment. Lateral pressure in the trachea is measured with a sidehole catheter (inner dimension, 2.5 mm) advanced through and positioned distal to the tip of the endotracheal tube. Transpulmonary pressure, the difference between tracheal and pleural pressure, is measured with a differential pressure transducer catheter system. […] The signals of flow and transpulmonary pressure is recorded on an oscilloscope recorder which is linked to a computer for on-line calculation of RL from transpulmonary pressure, respiratory volume (obtained by digital integration) and flow. […] Immediately after the measurement of RL, thoracic gas volume (Vtg) is measured in a constant volume body plethysmograph to obtain specific lung resistance (SRL=RL·Vtg) in L×cm H20/LPS. […]

Swiss 3T3 fibroblasts = assay: In vitro cytotoxicity assay on contact inhibited 3T3 fibroblasts (MTS); format: cell-based
Experimental: Other toxicity assays may be used.
Any compound killing 3T3 fibroblast cells was omitted from further studies.
Contact inhibited Swiss 3T3 fibroblasts are purchased from ATCC.
All compound dilutions are assayed in triplicate. […] Cells are returned to the incubator for 2 days.
Media is added to blank wells for background calculations.
Note that starting concentration of CsA was 1 μM.

ovalbumin specific IgE = assay: OVA induced IgE in mice; format: in vivo, mouse; conditions: serum day 15, 10 mg/kg intraperitoneally once a day from day 6 to day 14, vehicle 150.8
Experimental: Table 10 summarizes effects of 3-(4-pyridinylamino)-1H-indole-2-carboxylic acid on OVA induced IgE in mice. Female mice (5-8 week age, Balb/c, Charles River) were used in this study. Ovalbumin (Sigma) was adsorbed to Aluminum Hydroxide Adsorptive Gel, Inter, and injected 10 μg/0.2 ml/mouse intraperitoneally on experimental day 0 and day 7. Dexamethasone (Sigma) and 3-(4-pyridinylamino)-1H-indole-2-carboxylic acid (Example 28) were in 10% HPCD (Hydroxypropyl-β-Cyclodextrin, Aldrich). Dexamethasone (10 mg/kg), 3-(4-pyridinylamino)-1H-indole-2-carboxylic acid (Example 28) (3 and 10 mg/kg) and 10% HPCD (0.2 ml/mouse) are injected into mice intraperitoneally once a day from day 6 to day 14. They were bled at day 15. Serum ovalbumin specific IgE levels were determined by standard ELISA using a goat anti-mouse IgE antibody labeled with alkaline phosphatase. The anti-OVA titers were determined by malting serial dilutions of the test sera and comparing with vehicle control.

[2] = 3 mg/kg aerosol 30 min before antigen challenge, 2 sheep per group (FIG. 3A)

pIC50 (IFN-γ): < 5.00 | pIC50 (IL-4): 6.82 | pIC50 (IL-13): < 5.00 | pIC50 (IL-5): < 5.00
SMILES: O=C(O)c1[nH]c2cc(Cl)ccc2c1NC(=O)C1CCNCC1 [Example 82, 3-((4-Piperidineacyl)amino)-6-chloro-1H-indole-2-carboxylic acid]
pIC50 (Human Th2 cells): < 5.00

pIC50 (IFN-γ): < 5.00 | pIC50 (IL-4): 6.00 | pIC50 (IL-13): < 5.00 | pIC50 (IL-5): < 5.00
SMILES: CCOC(=O)c1[nH]c2cc(Cl)cc(Cl)c2c1N(C)C(=O)c1ccccc1 [Example 83, 3-((Benzoyl)methylamino)-4,6-dichloro-1H-indole-2-carboxylic acid ethyl ester]
pIC50 (Human Th2 cells): < 5.00

SMILES: O=C(O)c1[nH]c2ccccc2c1Nc1ccncc1 [Example 28, 3-(4-Pyridinylamino)-1H-indole-2-carboxylic acid]
antigen-induced early bronchial response: acute increase in specific lung resistance (SRL) [1, 2]: did not affect | antigen-induced late bronchial response (SRL) [1, 2]: blocked the late response | post challenge airway responsiveness (decrease of PC400 after antigen challenge) ([1]; 3 mg/kg, 2 sheep (FIG. 3B)): prevented this effect | toxic effects on quiescent 3T3 cells (in words) (Swiss 3T3 fibroblasts): no toxic effects | IL-4 (% control) mean (IL-4; 0.01 μM): 102.15 % control | IL-4 (% control) mean (IL-4; 0.03 μM): 65.30 % control | IL-4 (% control) mean (IL-4; 0.1 μM): 59.75 % control | IL-4 (% control) mean (IL-4; 0.3 μM): 45.00 % control | IL-4 (% control) mean (IL-4; 1 μM): 42.55 % control | IL-4 (% control) mean (IL-4; 3 μM): 36.40 % control | IL-4 (% control) mean (IL-4; 10 μM): 30.80 % control

SMILES: C[C@@H]1C[C@H]2[C@@H]3CCC4=CC(=O)C=C[C@]4(C)[C@@]3(F)[C@@H](O)C[C@]2(C)[C@@]1(O)C(=O)CO [Dexamethasone]
Anti-OVA IgE (ovalbumin specific IgE): 27.4
